Results as given in the NIST ThermoML archive (doi:10.1021/je3007474).
Numbers after ± are expanded uncertainties.

Tests used:
[1] = 101 kPa, Liquid; for viscosity: Falling or rolling sphere viscometry; for mass density: Vibrating tube method
[2] = xn = mol fraction of the nth substance listed; conditions: 101 kPa, Liquid, x2 = 0; for viscosity: Falling or rolling sphere viscometry; for mass density: Vibrating tube method

Row | Structure (SMILES) | viscosity ([1]; 298.15 K) [mPa·s] | mass density ([1]; 298.15 K) [kg/m3] | viscosity ([1]; 303.15 K) [mPa·s] | mass density ([1]; 303.15 K) [kg/m3] | viscosity ([1]; 313.15 K) [mPa·s] | mass density ([1]; 313.15 K) [kg/m3] | viscosity ([1]; 323.15 K) [mPa·s] | mass density ([1]; 323.15 K) [kg/m3] | viscosity ([1]; 333.15 K) [mPa·s] | mass density ([1]; 333.15 K) [kg/m3] | viscosity ([1]; 343.15 K) [mPa·s] | mass density ([1]; 343.15 K) [kg/m3] | viscosity ([1]; 353.15 K) [mPa·s] | mass density ([1]; 353.15 K) [kg/m3] | viscosity ([2]; 298.15 K) [mPa·s] | mass density ([2]; 298.15 K) [kg/m3] | viscosity ([2]; 303.15 K) [mPa·s] | mass density ([2]; 303.15 K) [kg/m3] | viscosity ([2]; 313.15 K) [mPa·s] | mass density ([2]; 313.15 K) [kg/m3] | also measured
1 | CCCCn1cc[n+](C)c1C.F[B-](F)(F)F [1-butyl-2,3-dimethylimidazolium tetrafluoroborate] | 650 ± 56 | 1193.19 ± 0.12 | 447 ± 33 | 1189.8 ± 0.12 | 232.9 ± 12 | 1183.02 ± 0.11 | 132.8 ± 4.4 | 1176.38 ± 0.11 | 81.53 ± 1.5 | 1169.82 ± 0.11 | 53.99 ± 0.56 | 1163.26 ± 0.11 | 37.13 ± 0.46 | 1156.71 ± 0.1 |  |  |  |  |  |  | 
2 | CC#N [acetonitrile] | 0.37 ± 0.005 | 776.55 ± 0.15 | 0.354 ± 0.004 | 771.13 ± 0.15 | 0.327 ± 0.004 | 760.18 ± 0.15 | 0.302 ± 0.004 | 749.11 ± 0.16 | 0.281 ± 0.004 | 737.86 ± 0.16 | 0.262 ± 0.003 | 726.43 ± 0.17 |  |  |  |  |  |  |  |  | 
3 | CC#N [acetonitrile] + CCCCn1cc[n+](C)c1C.F[B-](F)(F)F |  |  |  |  |  |  |  |  |  |  |  |  |  |  | 0.37 ± 0.005 | 776.55 ± 0.15 | 0.354 ± 0.004 | 771.13 ± 0.15 | 0.327 ± 0.004 | 760.18 ± 0.15 | viscosity ([2]; 323.15 K): 0.302 ± 0.004 mPa·s; mass density ([2]; 323.15 K): 749.11 ± 0.16 kg/m3; viscosity ([2]; 333.15 K): 0.281 ± 0.004 mPa·s; mass density ([2]; 333.15 K): 737.86 ± 0.16 kg/m3; viscosity ([2]; 343.15 K): 0.262 ± 0.003 mPa·s; mass density ([2]; 343.15 K): 726.43 ± 0.17 kg/m3
4 | C[S+](C)[O-] [dimethyl sulfoxide] | 2.012 ± 0.025 | 1095.74 ± 0.07 | 1.843 ± 0.023 | 1090.73 ± 0.07 | 1.556 ± 0.019 | 1080.69 ± 0.07 | 1.337 ± 0.016 | 1070.66 ± 0.06 | 1.165 ± 0.014 | 1060.63 ± 0.06 | 1.028 ± 0.013 | 1050.58 ± 0.06 | 0.917 ± 0.011 | 1040.51 ± 0.05 |  |  |  |  |  |  | 
5 | C[S+](C)[O-] [dimethyl sulfoxide] + CCCCn1cc[n+](C)c1C.F[B-](F)(F)F |  |  |  |  |  |  |  |  |  |  |  |  |  |  | 2.012 ± 0.025 | 1095.74 ± 0.07 | 1.843 ± 0.023 | 1090.73 ± 0.07 | 1.556 ± 0.019 | 1080.69 ± 0.07 | viscosity ([2]; 323.15 K): 1.337 ± 0.016 mPa·s; mass density ([2]; 323.15 K): 1070.66 ± 0.06 kg/m3; viscosity ([2]; 333.15 K): 1.165 ± 0.014 mPa·s; mass density ([2]; 333.15 K): 1060.63 ± 0.06 kg/m3; viscosity ([2]; 343.15 K): 1.028 ± 0.013 mPa·s; mass density ([2]; 343.15 K): 1050.58 ± 0.06 kg/m3; viscosity ([2]; 353.15 K): 0.917 ± 0.011 mPa·s; mass density ([2]; 353.15 K): 1040.51 ± 0.05 kg/m3
